In US20020173491A1, “DAPD combination therapy with inosine monophosphate dehydrogenase inhibitor” (priority 2000, published 2002):
Where two headings read alike, the source gives them in different places.

Columns and labels:
[1] = tested on: xxLAI strain of HIV-1; assay: microbe, parasite or virus in culture; format: cell-based
Procedure: Triplicate samples of compound were tested. MT2 cells were infected with xxLAI at a multiplicity of infection (MOI) of 0.03 for 3 hours at 37° C. in 5% CO2. The infected cells were plated at 3.0×10^4/well into a 96 well plated containing drug dilutions and incubated for 5 days at 37° C. in CO2. […] This method has been modified into a susceptibility assay and has been used in a variety of in vitro antiviral tests and is readily adaptable to any system with a lytic virus (Weislow, O. S., et. al. 1989). Using the absorption values of the cell controls as 100% protection and no drug, virus infected cells as 0% protection, a dose response curve is generated by plotting % protection on the Y axis and drug concentration on the X axis. From this curve EC50 values were determined.
Assays were performed in the MT2 cell line as described above in the XXT sensitivity assay section.
MPA was tested for activity against the xxLAI strain of HIV-1 in the laboratory adapted cell line MT2. Dilutions of MPA were made in cell culture media in a 96 well plate; the highest concentration tested was 1 μM. Triplicate samples of compound were tested. MT2 cells were infected with xxLAI at a multiplicity of infection (MOI) of 0.03 for 3 hours at 37° C. in 5% CO2. The infected cells were plated at 3.0×10^4/well into a 96 well plated containing drug dilutions and incubated for 5 days at 37° C. in CO2. The antiviral activity of MPA was determined using the XTT assay described above. This method has been modified into a susceptibility assay and has been used in a variety of in vitro antiviral tests and is readily adaptable to any system with a lytic virus (Weislow, O. S., et. al. 1989). Using the absorption values of the cell controls as 100% protection and no drug, virus infected cells as 0% protection, a dose response curve is generated by plotting % protection on the Y axis and drug concentration on the X axis. From this curve EC50 values were determined.
The concentrations of MPA used were 1, 0.5, 0.25, 0.1, and 0.01 μM. Assays were performed in the MT2 cell line as described in section 3.1.

[2] = tested on: xxLAI strain of HIV-1; assay: microbe, parasite or virus in culture; format: cell-based; remark: listed apart in the source
Procedure: In this assay, cell supernatants were incubated on microelisa wells coated with antibodies to HIV-1 p24 core antigen. Subsequently, anti-HIV-1 conjugate labeled with horseradish peroxidase was added. The labeled antibody bound to the solid phase antibody/antigen complexes previously formed. Addition of the tetramethylbenzidine substrate results in blue color formation. The color turned yellow when the reaction is stopped. The plates were then analyzed on a plate reader set at 490 nm. The absorbance is a direct measurement of the amount of HIV-1 produced in each well and a decrease in color indicates decreased viral production. […] PBMC were obtained from HIV-1 negative donors by banding on Ficoll gradients, stimulated with phytohemaglutinin (PHAP) for 48 hours prior to infection with HIV-1, and infected with virus for 4 hours at 37° C. at a MOI of 0.001. […] Plates were incubated for 3 days at 37° C. The concentration of virus in each well was determined using the NEN p24 assay. Using the absorption values of the cell controls as 100% protection and drug free, virus infected cells as 0% protection, a dose response curve is generated by plotting percent protection on the Y axis and drug concentration on the X axis. From this curve, EC50 values were determined.
Compound dilutions and assay conditions were as described above.
MPA was also tested for activity against the xxLAI strain of HIV-1 in PBMCs using a p24 based Elisa assay. In this assay, cell supernatants are incubated on microelisa wells coated with antibodies to HIV-1 p24 core antigen. Subsequently, anti-HIV-1 conjugate labeled with horse radish peroxidase is added. The labeled antibody binds to the solid phase antibody/antigen complexes previously formed. Addition of the tetramethylbenzidine substrate results in blue color formation. The color turns yellow when the reaction is stopped. The plates are then analyzed on a plate reader set at 490 nm. The absorbance is a direct measurement of the amount of HIV-1 produced in each well and a decrease in color indicates decreased viral production. Dilutions of MPA were made in cell culture media in a 96 well plate, the highest concentration of MPA tested was 1 μM. PBMC were obtained from HIV-1 negative donors by banding on Ficoll gradients, stimulated with phytohemaglutinin (PHAP) for 48 hours prior to infection with HIV-1, and infected with virus for 4 hours at 37° C. at a MOI of 0.001. Infected cells were seeded into 96 well plates containing 4-fold serial dilutions of MPA. Plates were incubated for 3 days at 37° C. The concentration of virus in each well was determined using the NEN p24 assay. Using the absorption values of the cell controls as 100% protection and drug free, virus infected cells as 0% protection, a dose response curve is generated by plotting % protection on the Y axis and drug concentration on the X axis. From this curve EC50 values were determined.
Compound dilutions and assay conditions were as described above. The concentrations of MPA used were 1, 0.5, 0.25, 0.1, and 0.01 μM.

With `Cc1cn([C@H]2C[C@H](N=[N+]=[N-])[C@@H](CO)O2)c(=O)[nH]c1=O` [AZT, 3′-azido-3′-deoxy-thymidine] the EC50 ([1]; Human immunodeficiency virus 1, MT2, read-out: Mean EC50, Control, MT2 cells, no MPA) was 420 nM, the EC50 ([1]; Human immunodeficiency virus 1, MT2, read-out: Mean EC50, Control, MT2 cells, no RBV) was 1700 nM and the “fold increase in the apparent EC50” value ([1]; MT2 cells, addition of 0.25 μM MPA) was 2.3 fold. The “Fold difference in EC50, 0.1 μM MPA” value ([1]; MT2 cells, control vs with 0.1 μM MPA) was 0.5 fold, the “Fold difference in EC50, 0.25 μM MPA” value ([1]; MT2 cells, control vs with 0.25 μM MPA (fold decrease)) was 0.44 fold and the “Fold difference in EC50, 1 μM RBV” value ([1]; MT2 cells, control vs with 1 μM RBV) was 0.59 fold. The “Fold difference in EC50, 5 μM RBV” value ([1]; MT2 cells, control vs with 5 μM RBV) was 0.37 fold, the “Fold difference in EC50, 10 μM RBV” value ([1]; MT2 cells, control vs with 10 μM RBV) was 0.29 fold and the “Fold difference in EC50, 20 μM RBV” value ([1]; MT2 cells, control vs with 20 μM RBV (fold decrease)) was less than 0.17 fold. The EC50 ([1]; read-out: Mean EC50, 0.01 μM MPA, MT2 cells, with 0.01 μM MPA) was 300 nM, the EC50 ([1]; read-out: Mean EC50, 0.1 μM MPA, MT2 cells, with 0.1 μM MPA) was 800 nM and the EC50 ([1]; read-out: Mean EC50, 0.25 μM MPA, MT2 cells, with 0.25 μM MPA) was 950 nM. It also gave an EC50 ([1]; read-out: Mean EC50, 1 μM RBV, MT2 cells, with 1 μM RBV) of 2900 nM, an EC50 ([1]; read-out: Mean EC50, 5 μM RBV, MT2 cells, with 5 μM RBV) of 4600 nM and an EC50 ([1]; read-out: Mean EC50, 10 μM RBV, MT2 cells, with 10 μM RBV) of 5900 nM. For the same molecule, the EC50 ([1]; read-out: Mean EC50, 20 μM RBV, MT2 cells, with 20 μM RBV) was greater than 10000 nM, the EC50 ([2]; Human immunodeficiency virus 1, PBMC, read-out: Mean EC50, Control, PMBCs, no MPA) was 3.1 nM and the EC50 ([2]; Human immunodeficiency virus 1, PBMC, read-out: Mean EC50, Control, PMBCs, no RBV) was 3 nM. The “effect of addition of 0.25 μM MPA on anti-HIV activity in PBMCs” value ([2]; PBMC, all the concentrations tested, with 0.25 μM MPA) was “little effect”, the “effect of addition of 20 μM RBV on anti-HIV activity in PBMCs” value ([2]; PBMC, all the concentrations tested, with 20 μM RBV) was “little effect” and the “Fold difference in EC50, 0.1 μM MPA” value ([2]; PBMC, control vs with 0.1 μM MPA) was 1.5 fold. For the same molecule, the “Fold difference in EC50, 0.25 μM MPA” value ([2]; PBMC, control vs with 0.25 μM MPA) was 1.8 fold, the “Fold difference in EC50, 5 μM RBV” value ([2]; PBMC, control vs with 5 μM RBV) was 1.2 fold and the “Fold difference in EC50, 10 μM RBV” value ([2]; PBMC, control vs with 10 μM RBV) was 1.4 fold. The “Fold difference in EC50, 20 μM RBV” value ([2]; PBMC, control vs with 20 μM RBV) was 1.4 fold, the EC50 ([2]; read-out: Mean EC50, 0.01 μM MPA, PMBCs, with 0.01 μM MPA) was 2.6 nM and the EC50 ([2]; read-out: Mean EC50, 0.1 μM MPA, PMBCs, with 0.1 μM MPA) was 2.1 nM. It also gave an EC50 ([2]; read-out: Mean EC50, 0.25 μM MPA, PMBCs, with 0.25 μM MPA) of 1.7 nM, an EC50 ([2]; read-out: Mean EC50, 1 μM RBV, PMBCs, with 1 μM RBV) of 3.5 nM and an EC50 ([2]; read-out: Mean EC50, 5 μM RBV, PMBCs, with 5 μM RBV) of 2.6 nM. It also gave an EC50 ([2]; read-out: Mean EC50, 10 μM RBV, PMBCs, with 10 μM RBV) of 2.2 nM and an EC50 ([2]; read-out: Mean EC50, 20 μM RBV, PMBCs, with 20 μM RBV) of 2.1 nM.
